Source: patent publication US6723717B1, “Sulfur-containing thyroxane derivatives and their use as hair growth promotors” (The University of Texas Southwestern Medical Center, priority 1999, dated 2004)

Tested on: male Sprague Dawley rats
Assay: Cardiotoxicity Assay (heart-to-body weight ratio)
Format: in vivo, rat
Details: 250 μg/kg subcutaneously once daily for 28 days, hearts weighed on day 30
Source text: The cardiotoxicity assay measures the potential of a test compound to adversely affect the cardiovascular system. As thyroid hormone (T3) damages the cardiovascular system, the heart enlarges. See, e.g., Gomberg-Maitland et al., “Thyroid hormone and Cardiovascular Disease”, American Heart Journal, Vol. 135(2), pp. 187-196 (1998); Klein and Ojamaa, “Thyroid Hormone and the Cardiovascular System”, Current Opinion in Endocrinology and Diabetes, Vol. 4, pp.341-346 (1997); and Klemperer et al., “Thyroid Hormone Therapy and Cardiovascular Disease”, Progress in Cardiovascular Diseases, Vol. 37 (4), pp. 329-336 (1996). This increases the weight of the heart relative to whole body weight. The cardiotoxicity assay herein below is used to test compounds for potentially adverse cardiac effects by measuring their effect on the heart-to-body weight ratio.
Two groups each of six male Sprague Dawley rats (Harlan Sprague Dawley, Inc., Indianapolis, Ind.) (each weighing from approximately 220 grams to 235 grams) are utilized. The first group is a vehicle control group and the second group is a test compound group. The length of the assay is 30 days, with treatment of vehicle or test compound in vehicle daily for 28 of those days as described below.
Prior to initiation of the assay, each rat is allowed to acclimate to standard environmental conditions for 5 days. […]

Question: For `N[C@@H](Cc1cc(I)c(Oc2cc(I)c(O)c(I)c2)c(I)c1)C(=O)O` [Example T4, thyroxine], which “cardiac-sparing (index C = RT/RV, heart/body weight ratio of test group over vehicle group; C less than 1.3 = cardiac-sparing)” value is on record?
Answer: The value was “not cardiac-sparine”.
